Patent US5633227A, “Secretory leukocyte protease inhibitor as an inhibitor of tryptase” (Miles, Inc., priority 1994, dated 1997)
Ends that are not written are not given here. * marks the point of attachment. Dansyl = CN(C)c1cccc2c(S(=O)(=O)*)cccc12

Assays:
tryptase = experiment: GPK-AMC assay for tryptase activity (Dixon plot); format: biochemical, human; conditions: 20 and 40 μM GPK-AMC; 37° C.; read-out: Ki for inhibition of tryptase catalyzed cleavage of GPK-AMC
Method: Tryptase activity was measured according to the procedure of Schwartz, et al., J. Biol. Chem., 261, 7372-7379 (1986) , with minor modifications, using Gly-Pro-Lys-Aminomethylcoumarin (GPK-AMC) as a substrate. The reaction was performed in assay buffer (0.1M Tris, pH 8.0, 10 μg/ml heparin) at room temperature in a 96-well microtiter plate (Perkin-Elmer, Norwalk, Conn.). The amount of coumarin produced by tryptase was determined by measuring the fluorescence (ex=372 nm, em=432 nm) on a Perkin-Elmer LS-50B fluorimeter equipped with a plate reader. 50 μl of tryptase (final concentration of 333 pM) was mixed with either 50 μl of the sample to be tested or with assay buffer and incubated for 5 min. at room temperature. […] The fluorescence intensity was measured every 5 minutes. For samples that were being tested for modulators of tryptase activity, the % inhibition for each fraction was determined by:
Inhibitory activity against tryptase and bovine trypsin was measured using Gly-Pro-Lys-aminomethylcoumarin as a substrate. […] The amount of coumarin produced was determined by measuring the fluorescence (ex=370 nm, em=432 nm) on a Perkin-Elmer LS-50B fluorimeter. […] The reaction was started by the addition of the substrate GPK-AMC (20 or 40 μM final) and the increase in fluorescence was measured over a 2 minute period. […]

human mast cell tryptase [1] = experiment: VIP assay for tryptase activity (Dns-VIP hydrolysis, HPLC/fluorescence, Dixon plot); format: biochemical; conditions: 0.4 and 0.8 μM VIP; 12.5 pM tryptase; 37° C.; read-out: Ki for inhibition of the formation of Dns-VIP-(1-14)
Method: In a typical assay, mast cell tryptase (12.5 pM) was incubated at 37° C. with dansyl-VIP (0.2-2 μM) in 100 mM Tris-HCl (pH 8.0) containing 1 μg/ml porcine mucosal heparin and 0.02% Triton X-100 in a final volume of 2.0 ml. To some samples, secretory leukocyte protease inhibitor was added to a final concentration of between 0 and 107 nM. The tryptase was pre-incubated with the SLPI, if added, for 5 min. at 37° C. before initiating the reaction by the addition of Dns-VIP. Aliquots (250 μl) were removed at 0, 2.5, 5.0, 7.5, 10, and 20 minutes to micro-vials (Sunbrokers) and the reaction terminated by the addition of TFA to a final concentration of 3% (v/v). The acidified reaction mixture was subjected to chromatography on a C-18 reverse-phase column (Vydac, 5 micron, 0.46×25 cm). Peptide hydrolysis was monitored by HPLC using a Hewlett Packard HP1090 unit complete with binary solvent delivery and autoinjection capability. Fluorescent detection (postcolumn) was performed with an inline Gilson Model 121 filter fluorimeter (excitation at 310-410 nm, emission at 480-520 nm). Dns-VIP fragments were separated from any unconverted Dns-VIP using a linear gradient of 69:31 (v/v) to 50:50 (v/v) C:D over 5.5 minutes (C=100 mM sodium acetate, pH 6.5 plus 0.2% sodium azide, D=80% ACN in water), with return to 69:31 (v/v) C:D at 6.5 minutes. Chromatography was performed at 1.0 ml/min at 25° C. […]

bovine trypsin = target: T1, bovine trypsin (Bos taurus, UniProt P00760); experiment: GPK-AMC assay for trypsin activity (Dixon plot); format: biochemical; conditions: at a concentration of 1800 nM
T1 sequence (P00760 24-246): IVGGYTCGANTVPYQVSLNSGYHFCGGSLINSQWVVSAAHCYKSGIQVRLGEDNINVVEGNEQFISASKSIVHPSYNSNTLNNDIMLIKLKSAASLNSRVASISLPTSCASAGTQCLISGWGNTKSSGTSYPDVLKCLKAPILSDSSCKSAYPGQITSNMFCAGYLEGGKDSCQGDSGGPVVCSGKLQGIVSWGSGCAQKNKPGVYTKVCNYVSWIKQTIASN
Method: Inhibitory activity against tryptase and bovine trypsin was measured using Gly-Pro-Lys-aminomethylcoumarin as a substrate. The reaction was performed in assay buffer that consisted of 0.1M Tris (pH 8.0), 1 μg/ml heparin, 0.02% Triton X-100, with 20 mM CaCl2 included only in the trypsin assays. The amount of coumarin produced was determined by measuring the fluorescence (ex=370 nm, em=432 nm) on a Perkin-Elmer LS-50B fluorimeter. To measure tryptase activity, 12 μl of a 1 nM solution of tryptase (tetramer) was incubated with either the N- (34 to 650 nM final) or the C-terminal (7-150 nM final) domain of SLPI in 1.0 ml of assay buffer for 5 minutes at 37° C. The reaction was started by the addition of the substrate GPK-AMC (20 or 40 μM final) and the increase in fluorescence was measured over a 2 minute period. In order to measure trypsin activity, 3.3 μl of a 10 μg/ml solution was incubated with either the N- or C- terminal domains of SLPI, and assayed using both 10 and 20 μM GPK-AMC. To determine Ki values, Dixon plots of the form 1/V vs [I] were constructed.

human mast cell tryptase [2] = experiment: Kinetic parameters for enzymatic cleavage of Dns-VIP by tryptase; format: biochemical
Method: In a typical assay, mast cell tryptase (12.5 pM) was incubated at 37° C. with dansyl-VIP (0.2-2 μM) in 100 mM Tris-HCl (pH 8.0) containing 1 μg/ml porcine mucosal heparin and 0.02% Triton X-100 in a final volume of 2.0 ml. To some samples, secretory leukocyte protease inhibitor was added to a final concentration of between 0 and 107 nM. The tryptase was pre-incubated with the SLPI, if added, for 5 min. at 37° C. before initiating the reaction by the addition of Dns-VIP. Aliquots (250 μl) were removed at 0, 2.5, 5.0, 7.5, 10, and 20 minutes to micro-vials (Sunbrokers) and the reaction terminated by the addition of TFA to a final concentration of 3% (v/v). The acidified reaction mixture was subjected to chromatography on a C-18 reverse-phase column (Vydac, 5 micron, 0.46×25 cm). Peptide hydrolysis was monitored by HPLC using a Hewlett Packard HP1090 unit complete with binary solvent delivery and autoinjection capability. Fluorescent detection (postcolumn) was performed with an inline Gilson Model 121 filter fluorimeter (excitation at 310-410 nm, emission at 480-520 nm). Dns-VIP fragments were separated from any unconverted Dns-VIP using a linear gradient of 69:31 (v/v) to 50:50 (v/v) C:D over 5.5 minutes (C=100 mM sodium acetate, pH 6.5 plus 0.2% sodium azide, D=80% ACN in water), with return to 69:31 (v/v) C:D at 6.5 minutes. Chromatography was performed at 1.0 ml/min at 25° C. The N-terminal fluorescent products were identified by subjecting known VIP fragments (see above) to chromatography under identical conditions.
The kinetic parameters Km, kcat, and Vmax for the initial rate of formation of Dns-VIP-(1-14) and Dns-VIP-(1-20), as well as the initial rate of disappearance of full-length Dns-VIP were determined. The initial velocity for the formation of Dns-VIP-(1-20) also contains the rate for the formation of Dns-VIP-(1-21) since it appears as a shoulder on the Dns-VIP-(1-20) peak within the elution profile. […] The effect of salt concentration on the initial rates of cleavage of Dns-VIP was measured in 150 mM NaCl and 10 mM CaCl2. In all cases, the kcat/Km values decreased with increasing salt concentration. […] However, this effect was offset by an increase in all of the Km values. […] The results for 10 mM CaCl2 were similar in that Km and Vmax values increased and kcat/Km ratios decreased.
Initial reaction velocities were obtained from a linear least squares analysis of the linear part of a plot of the number of picomoles of each product produced vs. time and where less than 10% of the total Dns-VIP was consumed. To determine the Ki value, a Dixon plot of the form 1/V vs. [I] was made for data collected at two different concentrations of VIP, where V is the velocity (pmoles/min) and [I] is the concentration of SLPI used.

Substance	Ki (tryptase)	Ki (human mast cell tryptase [1])	Inhibition of trypsin (bovine trypsin)	decrease in the kcat/Km ratio (human mast cell tryptase [2]; 10 mM CaCl2 vs no addition)	decrease in the kcat/Km ratio (human mast cell tryptase [2]; 150 mM NaCl vs no addition)	increase in Km (human mast cell tryptase [2]; 150 mM NaCl vs no addition)	increase in Vmax (human mast cell tryptase [2]; 150 mM NaCl vs no addition)	Km (human mast cell tryptase [2]; Addition: 10 mM CaCl2)	Vmax (human mast cell tryptase [2]; Addition: 10 mM CaCl2)	kcat/Km (human mast cell tryptase [2]; Addition: 10 mM CaCl2)	Km (human mast cell tryptase [2]; Addition: 150 mM NaCl)	Vmax (human mast cell tryptase [2]; Addition: 150 mM NaCl)	kcat/Km (human mast cell tryptase [2]; Addition: 150 mM NaCl)	Km (human mast cell tryptase [2]; Addition: None)	Vmax (human mast cell tryptase [2]; Addition: None)	kcat/Km (human mast cell tryptase [2]; Addition: None)
N-terminal domain: N-terminal domain of SLPI, amino acids 1-49, from formic acid cleavage of recombinant SLPI (SGKSFKAGVCPPKKSAQCLRYKKPECQSDWQCPGKKRCCPDTCGIKCLD)	290 nM	130 nM	unable to inhibit	–	–	–	–	–	–	–	–	–	–	–	–	–
C-terminal domain: C-terminal domain of SLPI, amino acids 50-107, from formic acid cleavage of recombinant SLPI (PVDTPNPTRRKPGKCPVTYGQCLMLNPPNFCEMDGQCKRDLKCCMGMCGKSCVSPVKA)	4.8 nM	1.6 nM	–	–	–	–	–	–	–	–	–	–	–	–	–	–
Dns-VIP-(1-14): Dansyl-VIP fragment of amino acids 1-14 formed by tryptase cleavage after Arg-14 (Dansyl-HSDAVFTDNYTRLR; UniProt P01282 125-138, looked up, fragment)	–	–	–	9 fold	16 fold	59 fold	4 fold	4.1 µM	4.5 pmol/min/mg	0.25 M^-1 sec^1 × 10^7	7.7 µM	4.9 pmol/min/mg	0.14 M^-1 sec^1 × 10^7	0.1 µM	1.3 pmol/min/mg	2.3 M^-1 sec^1 × 10^7
Dns-VIP: N-terminally dansylated vasoactive intestinal peptide (28 amino acids), tryptase substrate (Dansyl-HSDAVFTDNYTRLRKQMAVKKYLNSILN; ends and bridges not checked; also: synthesized on Rink resin (C-terminus not given here))	–	–	–	~5 fold	9 fold	14 fold	–	4.7 µM	8.2 pmol/min/mg	0.4 M^-1 sec^1 × 10^7	7.4 µM	6.6 pmol/min/mg	0.2 M^-1 sec^1 × 10^7	0.5 µM	4.3 pmol/min/mg	1.8 M^-1 sec^1 × 10^7
Dns-VIP-(1-20): Dansyl-VIP fragment of amino acids 1-20 formed by tryptase cleavage after Lys-20; peak includes the 1-21 shoulder (Dansyl-HSDAVFTDNYTRLRKQMAVK; UniProt P01282 125-144, looked up, fragment)	–	–	–	11 fold	47 fold	72 fold	–	4.5 µM	2.6 pmol/min/mg	0.13 M^-1 sec^1 × 10^7	9.4 µM	1.1 pmol/min/mg	0.03 M^-1 sec^1 × 10^7	0.1 µM	0.6 pmol/min/mg	1.4 M^-1 sec^1 × 10^7
